ChEMBL document CHEMBL5137121, “Spiroisoxazoline Inhibitors of Acetylcholinesterase from Pseudoceratina verrucosa. Quantitative Chiroptical Analysis of Configurational Heterogeneity, and Total Synthesis of (±)-Methyl Purpuroceratate C” (J Nat Prod, 2022)

Columns and labels:
[1] = target: Acetylcholinesterase (Electrophorus electricus, UniProt O42275); test: Inhibition of electric eel AChE using acetylthiocholine as substrate preincubated with enzyme for 30 mins followed by substrate addition by Ellman's method
Chain of Acetylcholinesterase (O42275 whole entry): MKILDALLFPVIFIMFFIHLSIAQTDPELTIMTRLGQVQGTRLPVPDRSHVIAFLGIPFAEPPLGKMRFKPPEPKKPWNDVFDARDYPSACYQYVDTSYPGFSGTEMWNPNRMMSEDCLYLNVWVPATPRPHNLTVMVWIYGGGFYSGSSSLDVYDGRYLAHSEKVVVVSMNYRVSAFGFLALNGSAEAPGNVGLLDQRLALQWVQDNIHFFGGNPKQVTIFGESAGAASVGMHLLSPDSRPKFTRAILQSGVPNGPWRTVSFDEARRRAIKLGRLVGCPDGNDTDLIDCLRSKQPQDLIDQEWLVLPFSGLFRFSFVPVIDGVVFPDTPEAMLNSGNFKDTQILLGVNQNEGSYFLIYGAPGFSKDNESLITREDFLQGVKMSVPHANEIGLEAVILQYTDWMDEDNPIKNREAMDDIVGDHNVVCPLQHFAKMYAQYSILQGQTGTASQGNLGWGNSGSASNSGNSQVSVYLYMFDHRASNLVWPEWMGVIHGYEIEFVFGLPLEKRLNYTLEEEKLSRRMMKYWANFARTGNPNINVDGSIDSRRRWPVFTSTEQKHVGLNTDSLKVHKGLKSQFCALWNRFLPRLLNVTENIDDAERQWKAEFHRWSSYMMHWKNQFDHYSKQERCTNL

[2] = target: Cholinesterase (Equus caballus, UniProt P81908); test: Inhibition of horse BuChE using butyrylthiocholine as substrate preincubated with enzyme for 30 mins followed by substrate addition by Ellman's method
Chain of Cholinesterase (P81908 whole entry): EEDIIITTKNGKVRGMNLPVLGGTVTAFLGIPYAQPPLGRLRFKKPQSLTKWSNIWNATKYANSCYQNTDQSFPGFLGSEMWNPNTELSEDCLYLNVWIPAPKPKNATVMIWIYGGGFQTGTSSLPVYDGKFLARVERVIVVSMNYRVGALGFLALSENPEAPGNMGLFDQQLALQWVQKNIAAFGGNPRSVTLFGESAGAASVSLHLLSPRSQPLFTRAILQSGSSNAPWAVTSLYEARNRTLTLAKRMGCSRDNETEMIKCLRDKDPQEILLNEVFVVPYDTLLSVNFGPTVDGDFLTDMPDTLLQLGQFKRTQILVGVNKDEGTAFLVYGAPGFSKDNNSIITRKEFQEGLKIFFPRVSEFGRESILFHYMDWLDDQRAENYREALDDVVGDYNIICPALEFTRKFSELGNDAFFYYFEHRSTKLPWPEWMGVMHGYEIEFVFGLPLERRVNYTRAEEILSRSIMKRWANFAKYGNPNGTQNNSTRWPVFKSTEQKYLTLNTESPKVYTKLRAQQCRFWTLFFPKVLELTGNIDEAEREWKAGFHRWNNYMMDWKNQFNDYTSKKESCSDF

[3] = Selectivity index, ratio of IC50 for horse BuChE to IC50 for electric eel AChE

| Compound | IC50 [1] [µM] | IC50 [2] [µM] | Ratio IC50 [3] |
| --- | --- | --- | --- |
| COC1=C(Br)[C@H](O)[C@@]2(C=C1Br)CC(C(=O)NCCCOc1c(Br)cc(C[C@H](N)C(=O)O)cc1Br)=NO2 | 19.9 | > 100 | > 5 |
| COC1=C(Br)[C@H](O)[C@@]2(C=C1Br)CC(C(=O)NCCc1cc(Br)c(OCCC(C(=O)[O-])[N+](C)(C)C)c(Br)c1)=NO2 (stereo not given in full) | 4.79 | 10 | 2.1 |
| COC1=C(Br)[C@H](O)[C@@]2(C=C1Br)CC(C(N)=O)=NO2 | 3.32 | 15.4 | 4.6 |
| COC1=C(Br)[C@H](O)[C@@]2(C=C1Br)CC(C(=O)NCCCCCNC(=N)N)=NO2 [APLYSINAMISINE II] | 0.77 | 10.3 | 13 |
| COC1=C(Br)[C@H](O)[C@@]2(C=C1Br)CC(C(=O)NCCc1cc(Br)c(O)c(Br)c1)=NO2 | 5.8 | 10.7 | 1.9 |
